Experimental data published in patent publication US20250213707A1, “COMPOUND FOR INCREASING EFFICACY OF ONCOLYTIC VIRUSES” (ABLEVIA BIOTECH GMBH, priority 2022, published 2025).

Tested on: IgG from human donors (anti-AAV antibodies)
Assay: Screen for anti-AAV antibodies in human sera, 2452 linear 15-amino-acid AAV peptides on microarrays (Table 1)
Assay type: binding
Parameters: key to group I: X: the deduplicated aggregate of the respective top 10 peptide hits for each donor was compiled and designated as group I; key to group II: X: the deduplicated aggregate of the respective top 25 peptide hits for each donor was compiled and designated as group II; key to group III: X: the deduplicated aggregate of the respective top 50 peptide hits for each donor was compiled and designated as group III
Conditions: for group I: membership in deduplicated aggregate of top 10 peptide hits for each donor
Experimental: 2452 linear peptides derived from the sequences of 16 different AAVs and with a sequence length of 15 amino-acids each were synthesized.
Samples obtained from human donors were screened for antibodies against these AAV-derived peptides immobilized on microarrays. To this end, IgG was prepared from blood obtained from the human donors by protein G purification. Each IgG sample was incubated with the peptide microarrays and Ig binding signals were detected by fluorescence. All antibody binding signals to the peptides on the arrays were background subtracted and ranked for each sample and a deduplicated aggregate of the respective top 250 peptide hits for each donor with the corresponding protein sequence of origin (as obtained from UniProt or other sources) was compiled (designated as group IV). Further, the deduplicated aggregate of the respective top 50 peptide hits for each donor was compiled and designated as group III. Further, the deduplicated aggregate of the respective top 25 peptide hits for each donor was compiled and designated as group II. Finally, the deduplicated aggregate of the respective top 10 peptide hits for each donor was compiled and designated as group I.
Altogether, group I contains 110 distinct peptide hits (assigned to the corresponding AAV vectors in Table 1), group II contains 289 distinct peptide hits, group III contains 428 distinct peptide hits and group IV contains 1271 distinct peptide hits. Evidently, group I is a subset of group II which in turn is a subset of group III which in turn is a subset of group IV. Groups I-IV correspond to the top 4.4%, […], 17.5% and 51.8%, respectively, of all peptides screened.

[1] = human donor IgG binding to linear 15-amino-acid AAV peptides on microarray, fluorescence
[2] = membership in deduplicated aggregate of top 25 peptide hits for each donor, human donor IgG binding to linear 15-amino-acid AAV peptides on microarray, fluorescence
[3] = membership in deduplicated aggregate of top 50 peptide hits for each donor, human donor IgG binding to linear 15-amino-acid AAV peptides on microarray, fluorescence
[4] = X = peptide in the deduplicated aggregate of the top 50 peptide hits for each donor (top 17.5% of all peptides screened), linear 15-amino-acid AAV peptides on microarrays, human donor IgG, fluorescence
[5] = X = peptide belongs to the deduplicated aggregate of the top 50 peptide hits for each donor, linear 15-amino-acid AAV peptides, IgG binding by fluorescence
[6] = X = peptide belongs to the deduplicated aggregate of the top 25 peptide hits for each donor, linear 15-amino-acid AAV peptides, IgG binding by fluorescence

With “EEEIKTTNPVATEE (REGION 1..14: note = peptide derived from viral capsid protein) [SEQ ID NO: 1935]” the “group I” value [1] was “X”, the “group II” value [2] was “X” and the “group III” value [3] was “X”.

“454 (YFGYSTPWGYFDFNR; REGION 1..15: note = peptide derived from viral capsid protein) [compound 454]” was tested, and the “group III” value [4] was “X”.

With “320 (GPPPPKPAERHKDDS; REGION 1..15: note = peptide derived from viral capsid protein) [compound 320]” the “group III” value [5] was “X”.

In the case of “474 (ENSKRWNPEIQYTNN; REGION 1..15: note = peptide derived from viral capsid protein) [compound 474]”, the “group III” value [4] is reported as “X”.

In the case of “445 (NNSNFAWTAGTKYHL; REGION 1..15: note = peptide derived from viral capsid protein) [compound 445]”, the “group III” value [4] is reported as “X”.

In the case of “SESVPDPQPLGEPP (REGION 1..14: note = peptide derived from viral capsid protein) [SEQ ID NO: 1922]”, the “group I” value [1] is reported as “X”, the “group II” value [2] is reported as “X” and the “group III” value [3] is reported as “X”.

“330 (DSGDNPYLKYNHADA; REGION 1..15: note = peptide derived from viral capsid protein) [compound 330]” was tested, and the “group III” value [5] was “X”.

“343 (TFEDVPFHSSYAHSQ; REGION 1..15: note = peptide derived from viral capsid protein) [compound 343]” was tested, and the “group III” value [5] was “X”.

NAADAAALEHDKAY [SEQ ID NO: 1956] was tested, and the “group I” value [1] was “X”, the “group II” value [2] was “X” and the “group III” value [3] was “X”.

With “290 (NVDFAVNTDGTYSEP; REGION 1..15: note = peptide derived from viral capsid protein) [compound 290]” the “group III” value [5] was “X”.

In the case of “297 (DSLVNPGVAMATHDD; REGION 1..15: note = peptide derived from viral capsid protein) [compound 297]”, the “group III” value [5] is reported as “X”.

DAAALEHDKAYDQQ [SEQ ID NO: 1940] was tested, and the “group I” value [1] was “X”, the “group II” value [2] was “X” and the “group III” value [3] was “X”.

In the case of “353 (TPWGYFDFNRFHCHF; REGION 1..15: note = peptide derived from viral capsid protein) [compound 353]”, the “group III” value [5] is reported as “X”.

For “481 (LGLEAGPPKPKPNQQ; REGION 1..15: note = peptide derived from viral capsid protein) [compound 481]”, the “group III” value [4] was “X”.

QQRVSTTLSQNNNS [SEQ ID NO: 1963] was tested, and the “group I” value [1] was “X”, the “group II” value [2] was “X” and the “group III” value [3] was “X”.

In the case of “KNTPVPADPPTTFS (REGION 1..14: note = peptide derived from viral capsid protein) [SEQ ID NO: 1953]”, the “group I” value [1] is reported as “×”, the “group II” value [2] is reported as “X” and the “group III” value [3] is reported as “X”.

For “416 (LNSFITQYSTGQVSV; REGION 1..15: note = peptide derived from viral capsid protein) [compound 416]”, the “group III” value [4] was “X”.

With GQNNNSNFAWTAGT [SEQ ID NO: 1936] the “group I” value [1] was “X”, the “group II” value [2] was “X” and the “group III” value [3] was “X”.

In the case of “282 (FITQYSTGQVTVEME; REGION 1..15: note = peptide derived from viral capsid protein) [compound 282]”, the “group II” value [6] is reported as “X” and the “group III” value [5] is reported as “X”.

“408 (STTVTQNNNSEFAWP; REGION 1..15: note = peptide derived from viral capsid protein) [compound 408]” was tested, and the “group III” value [4] was “X”.

“411 (ILIKNTPVPADPPTA; REGION 1..15: note = peptide derived from viral capsid protein) [compound 411]” was tested, and the “group III” value [4] was “X”.

With “384 (HSSYAHSQSLDRLMN; REGION 1..15: note = peptide derived from viral capsid protein) [compound 384]” the “group III” value [5] was “X”.

With “331 (DSLVNPGPAMASHKD; REGION 1..15: note = peptide derived from viral capsid protein) [compound 331]” the “group III” value [5] was “X”.

With PPQILIKNTPVPAD [SEQ ID NO: 1959] the “group I” value [1] was “X”, the “group II” value [2] was “X” and the “group III” value [3] was “X”.

With “414 (GNGLDKGEPVNAADA; REGION 1..15: note = peptide derived from viral capsid protein) [compound 414]” the “group III” value [4] was “X”.

With “333 (MITDEEEIRTTNPVA; REGION 1..15: note = peptide derived from viral capsid protein) [compound 333]” the “group III” value [5] was “X”.

With “DKAYDQQLKAGDNP (REGION 1..14: note = peptide derived from viral capsid protein) [SEQ ID NO: 1941]” the “group I” value [1] was “X”, the “group II” value [2] was “X” and the “group III” value [3] was “X”.

For “382 (FHSSYAHSQSLDRLM; REGION 1..15: note = peptide derived from viral capsid protein) [compound 382]”, the “group III” value [5] was “X”.

For “366 (MVWQDRDVYLQGPIW; REGION 1..15: note = peptide derived from viral capsid protein) [compound 366]”, the “group III” value [5] was “X”.

For “336 (VTQNDGTTTIANNLT; REGION 1..15: note = peptide derived from viral capsid protein) [compound 336]”, the “group III” value [5] was “X”.

For PVPADPPTTESQAK [SEQ ID NO: 1931], the “group I” value [1] was “X”, the “group II” value [2] was “X” and the “group III” value [3] was “X”.

For “430 (NTPVPADPPTTFNQS; REGION 1..15: note = peptide derived from viral capsid protein) [compound 430]”, the “group III” value [4] was “X”.

With “483 (TMSAGGGGPLGDNNQ; REGION 1..15: note = peptide derived from viral capsid protein) [compound 483]” the “group III” value [4] was “X”.

“LPYVLGSAHQGCLP (REGION 1..14: note = peptide derived from viral capsid protein) [SEQ ID NO: 1954]” was tested, and the “group I” value [1] was “X”, the “group II” value [2] was “X” and the “group III” value [3] was “X”.

In the case of “313 (QGCLPPFPADVFMVP; REGION 1..15: note = peptide derived from viral capsid protein) [compound 313]”, the “group III” value [5] is reported as “X”.

With “285 (PSKMLRTGNNFEFTY; REGION 1..15: note = peptide derived from viral capsid protein) [compound 285]” the “group II” value [6] was “X” and the “group III” value [5] was “X”.

“459 (YSTGQVTVEMEWELK; REGION 1..15: note = peptide derived from viral capsid protein) [compound 459]” was tested, and the “group III” value [4] was “X”.

With “406 (NNNSEFAWPGASSWA; REGION 1..15: note = peptide derived from viral capsid protein) [compound 406]” the “group III” value [4] was “X”.

With “362 (AHQGCLPPFPADVFM; REGION 1..15: note = peptide derived from viral capsid protein) [compound 362]” the “group III” value [5] was “X”.

“327 (QVKEVTQNDGTTTIA; REGION 1..15: note = peptide derived from viral capsid protein) [compound 327]” was tested, and the “group III” value [5] was “X”.

For “294 (GDSESVPDPQPIGEP; REGION 1..15: note = peptide derived from viral capsid protein) [compound 294]”, the “group III” value [5] was “X”.

For “291 (KDNVDYSSVMLTSEE; REGION 1..15: note = peptide derived from viral capsid protein) [compound 291]”, the “group III” value [5] was “X”.

With “DSESVPDPQPIGEP (REGION 1..14: note = peptide derived from viral capsid protein) [SEQ ID NO: 1942]” the “group I” value [1] was “X”, the “group II” value [2] was “X” and the “group III” value [3] was “X”.

For “319 (EQYGSVSTNLQRGNR; REGION 1..15: note = peptide derived from viral capsid protein) [compound 319]”, the “group III” value [5] was “X”.

For “410 (ENVPFHSSYAHSQSL; REGION 1..15: note = peptide derived from viral capsid protein) [compound 410]”, the “group III” value [4] was “X”.

For “301 (STTLSQNNNSNFAWT; REGION 1..15: note = peptide derived from viral capsid protein) [compound 301]”, the “group III” value [5] was “×”.

For “KGEPVNAADAAALE (REGION 1..14: note = peptide derived from viral capsid protein) [SEQ ID NO: 1952]”, the “group I” value [1] was “×”, the “group II” value [2] was “X” and the “group III” value [3] was “X”.
